In ChEMBL document CHEMBL4130493, “An insight into the biological activities of heterocyclic-fatty acid hybrid molecules” (Eur J Med Chem, 2017):
≈ marks a conversion by molar mass, not a printed value.

How the values were obtained:
Mycobacterium avium = experiment: Antimycobacterial activity against Mycobacterium avium; format: functional
[1] = system: Mycobacterium tuberculosis; experiment: Antimycobacterial activity against Mycobacterium tuberculosis H37Rv assessed as reduction in mycobacterial growth incubated for 5 days by MTT assay; format: functional; conditions: 120 h
Bacillus subtilis [2] = experiment: Antibacterial activity against Bacillus subtilis MTCC 121 incubated for 24 hrs by filter paper disc method; format: functional
Pseudomonas aeruginosa = experiment: Antibacterial activity against Pseudomonas aeruginosa incubated for 24 hrs by filter paper disc method; format: functional
Staphylococcus aureus [3] = experiment: Antibacterial activity against Staphylococcus aureus MSSA 22 incubated for 24 hrs by filter paper disc method; format: functional
Escherichia coli [4] = experiment: Antibacterial activity against Escherichia coli K-12 incubated for 24 hrs by filter paper disc method; format: functional
Hep 3B2 = experiment: Cytotoxicity in human Hep3B cells incubated for 48 hrs by MTT assay; format: functional, cell-based
MCF7 = experiment: Cytotoxicity in human MCF7 cells incubated for 48 hrs by MTT assay; format: functional, cell-based; conditions: MCF7, 48 h
HeLa = experiment: Cytotoxicity in human HeLa cells incubated for 48 hrs by MTT assay; format: functional, cell-based
Candida albicans [5] = experiment: Antifungal activity against Candida albicans by disc diffusion method; format: functional
Candida albicans [6] = experiment: Antifungal activity against Candida albicans IOA-109; format: functional
Klebsiella pneumoniae = experiment: Antibacterial activity against Klebsiella pneumoniae incubated for 24 hrs by filter paper disc method; format: functional
Candida albicans [7] = experiment: Antifungal activity against Candida albicans IOA-109 incubated for 18 to 48 hrs; format: functional
Staphylococcus aureus [8] = experiment: Antibacterial activity against Staphylococcus aureus MSSA 22 by disc diffusion method; format: functional
Escherichia coli [9] = experiment: Antibacterial activity against Escherichia coli K-12 by disc diffusion method; format: functional
Salmonella typhimurium = experiment: Antibacterial activity against Salmonella typhimurium MTCC98 by disc diffusion method; format: functional, Salmonella enterica subsp. enterica serovar Typhimurium
Bacillus subtilis [10] = experiment: Antibacterial activity against Bacillus subtilis ATCC 6051 by disc diffusion method; format: functional
[11] = system: Mycobacterium tuberculosis; experiment: Antimycobacterial activity against Mycobacterium tuberculosis MDR-TB; format: functional
[12] = system: Mycobacterium tuberculosis; experiment: Antimycobacterial activity against Mycobacterium tuberculosis XDR-TB; format: functional
Candida albicans [13] = experiment: Antifungal activity against Candida albicans IOA-109 at 50 ug/disc incubated for 5 to 6 days by disc diffusion method; format: functional; conditions: read-out: DIZ
Staphylococcus aureus [14] = experiment: Antibacterial activity against Staphylococcus aureus at 50 ug/disc incubated for 18 hrs by disc diffusion method; format: functional; conditions: read-out: DIZ

Question: What does the source list for CCCCCCCCc1cn(CC(=O)OCC)nn1?
Answer: MIC (Mycobacterium avium): 0.5 µg/mL (≈ 1.87 µM); MIC [1]: 0.5 µg/mL (≈ 1.87 µM)

Question: For CCCCC/C=C\CCC(O)CCCCCCCC(=O)N1N=C(C)CC1=O (stereo unspecified), which “diameter of the inhibition zone (DIZ)” value (Bacillus subtilis [2]) is on record?
Answer: 10 - 18 mm

Question: And the “diameter of the inhibition zone (DIZ)” value (Pseudomonas aeruginosa)?
Answer: 10 - 18 mm

Question: What about the “diameter of the inhibition zone (DIZ)” value (Staphylococcus aureus [3]) of the same molecule?
Answer: 10 - 18 mm

Question: What about the “diameter of the inhibition zone (DIZ)” value (Escherichia coli [4]) of the same molecule?
Answer: 10 - 18 mm

Question: For CCCC/C=C\CCC(O)CCCCCCC1=NNC2SCC(c3ccccc3)=NN12 (stereo unspecified), which IC50 (Hep 3B2) is on record?
Answer: 7.36 µM

Question: What about the IC50 (MCF7) of the same molecule?
Answer: 8.8 µM

Question: What about the IC50 (HeLa) of the same molecule?
Answer: 6 µM

Question: For CCCCCC(O)/C=C\CCCCCCCc1ccc(CCCCCCC/C=C\C(O)CCCCC)o1 (stereo unspecified), which “diameter of the inhibition zone (DIZ)” value (Candida albicans [5]) is on record?
Answer: 27 mm

Question: With C=CCCCCCCCCc1nc2ccccc2s1 as the molecule, how does the “diameter of the inhibition zone (DIZ)” value (Candida albicans [6]) read?
Answer: 16 - 20 mm

Question: Which “diameter of the inhibition zone (DIZ)” value (Bacillus subtilis [2]) does the source give for CCCCCCC/C=C\CC(O)CCCCCCC(=O)n1[nH]c(=O)c2ccccc2c1=O (stereo unspecified) here?
Answer: 10 - 18 mm

Question: What about the “diameter of the inhibition zone (DIZ)” value (Pseudomonas aeruginosa) of the same molecule?
Answer: 10 - 18 mm

Question: What about the “diameter of the inhibition zone (DIZ)” value (Staphylococcus aureus [3]) of the same molecule?
Answer: 10 - 18 mm

Question: What about the “diameter of the inhibition zone (DIZ)” value (Escherichia coli [4]) of the same molecule?
Answer: 15 - 18 mm

Question: What does the source list for CCCCC/C=C\CCC(O)CCCCCCCC(=O)Nn1c(C)ccc1C (stereo unspecified)?
Answer: diameter of the inhibition zone (DIZ) (Bacillus subtilis [2]): 15 - 19 mm; diameter of the inhibition zone (DIZ) (Klebsiella pneumoniae): 15 - 19 mm; diameter of the inhibition zone (DIZ) (Staphylococcus aureus [3]): 15 - 19 mm; diameter of the inhibition zone (DIZ) (Escherichia coli [4]): 15 - 19 mm; diameter of the inhibition zone (DIZ) (Candida albicans [7]): 17 - 20 mm

Question: Which results are given for C=CCCCCCCCCC1=NNC2SCC(c3ccccc3)=NN12 (stereo unspecified)?
Answer: IC50 (Hep 3B2): 7.4 µM; IC50 (MCF7): 10.3 µM; IC50 (HeLa): 8.01 µM

Question: What does the source list for C=CCCCCCCCCc1nnc(N)o1?
Answer: diameter of the inhibition zone (DIZ) (Staphylococcus aureus [8]): 7 - 13 mm; diameter of the inhibition zone (DIZ) (Escherichia coli [9]): 7 - 13 mm; diameter of the inhibition zone (DIZ) (Salmonella typhimurium): 7 - 13 mm; diameter of the inhibition zone (DIZ) (Bacillus subtilis [10]): 7 - 13 mm

Question: How did the “diameter of the inhibition zone (DIZ)” value (Bacillus subtilis [2]) turn out when CCCCC/C=C\CCC(O)CCCCCCCc1nc2ccccc2c(=O)o1 (stereo unspecified) was run?
Answer: 15 - 19 mm

Question: And the “diameter of the inhibition zone (DIZ)” value (Klebsiella pneumoniae)?
Answer: 15 - 19 mm

Question: And the “diameter of the inhibition zone (DIZ)” value (Staphylococcus aureus [3])?
Answer: 15 - 19 mm

Question: And the “diameter of the inhibition zone (DIZ)” value (Escherichia coli [4])?
Answer: 15 - 19 mm

Question: What about the “diameter of the inhibition zone (DIZ)” value (Candida albicans [7]) of the same molecule?
Answer: 17 - 20 mm

Question: For CCCCCCCCNc1cncc(C(=O)Nc2ccccc2)n1, which MIC [11] is on record?
Answer: 16 to 32 µM (≈ 5.22 to 10.4 µg/mL)

Question: What about the MIC [12] of the same molecule?
Answer: 16 to 32 µM (≈ 5.22 to 10.4 µg/mL)

Question: CCCCCCCC/C=C\CCCCCCCc1nc2ccccc2s1 was tested. Which “diameter of the inhibition zone (DIZ)” value (Candida albicans [6]) did it give?
Answer: 16 - 20 mm

Question: Which results are given for CCCCCCC(O)C/C=C\CCCCCCCC1=NNC2SCC(c3ccccc3)=NN12 (stereo unspecified)?
Answer: IC50 (Hep 3B2): 6.5 µM; IC50 (MCF7): 8.59 µM; IC50 (HeLa): 8.83 µM

Question: Which zone of inhibition at 50 µg/disc (Candida albicans [13]) does the source give for CCCCCCCC/C=C\CCCCCCCC(=O)n1nnc2ccccc21 here?
Answer: 13 to 15 mm

Question: What about the zone of inhibition at 50 µg/disc (Staphylococcus aureus [14]) of the same molecule?
Answer: 13 to 15 mm

Question: With CCCCCCCCCCCCCCCc1ccc(CCCCCCCCCCCCCCC)o1 as the molecule, how does the “diameter of the inhibition zone (DIZ)” value (Candida albicans [5]) read?
Answer: 27 mm

Question: How did the “diameter of the inhibition zone (DIZ)” value (Bacillus subtilis [2]) turn out when CCCCCCC(O)C/C=C\CCCCCCC(=O)N1N=C(C)CC1=O (stereo unspecified) was run?
Answer: 10 - 18 mm

Question: And the “diameter of the inhibition zone (DIZ)” value (Pseudomonas aeruginosa)?
Answer: 10 - 18 mm

Question: What about the “diameter of the inhibition zone (DIZ)” value (Staphylococcus aureus [3]) of the same molecule?
Answer: 10 - 18 mm

Question: And the “diameter of the inhibition zone (DIZ)” value (Escherichia coli [4])?
Answer: 10 - 18 mm

Question: With CCCCCCCCCCCCCCCc1nc2ccccc2s1 as the molecule, how does the “diameter of the inhibition zone (DIZ)” value (Candida albicans [6]) read?
Answer: 16 - 20 mm

Question: With CCCCCCCC(O)CC/C=C\CCCCC(=O)n1[nH]c(=O)c2ccccc2c1=O (stereo unspecified) as the molecule, how does the “diameter of the inhibition zone (DIZ)” value (Bacillus subtilis [2]) read?
Answer: 10 - 18 mm

Question: What about the “diameter of the inhibition zone (DIZ)” value (Pseudomonas aeruginosa) of the same molecule?
Answer: 10 - 18 mm

Question: What about the “diameter of the inhibition zone (DIZ)” value (Staphylococcus aureus [3]) of the same molecule?
Answer: 10 - 18 mm

Question: What about the “diameter of the inhibition zone (DIZ)” value (Escherichia coli [4]) of the same molecule?
Answer: 15 - 18 mm

Question: What does the source list for CCCCCCC(O)C/C=C\CCCCCCC(=O)Nn1c(C)ccc1C (stereo unspecified)?
Answer: diameter of the inhibition zone (DIZ) (Bacillus subtilis [2]): 15 - 19 mm; diameter of the inhibition zone (DIZ) (Klebsiella pneumoniae): 15 - 19 mm; diameter of the inhibition zone (DIZ) (Staphylococcus aureus [3]): 15 - 19 mm; diameter of the inhibition zone (DIZ) (Escherichia coli [4]): 15 - 19 mm; diameter of the inhibition zone (DIZ) (Candida albicans [7]): 17 - 20 mm

Question: With C=CCCCCCCCCC(=O)n1nnc2ccccc21 as the molecule, how does the zone of inhibition at 50 µg/disc (Candida albicans [13]) read?
Answer: 13 to 15 mm

Question: What about the zone of inhibition at 50 µg/disc (Staphylococcus aureus [14]) of the same molecule?
Answer: 13 to 15 mm

Question: What does the source list for CCCCCCC(O)C/C=C\CCCCCCCc1nnc(N)o1 (stereo unspecified)?
Answer: diameter of the inhibition zone (DIZ) (Staphylococcus aureus [8]): 13 - 18 mm; diameter of the inhibition zone (DIZ) (Escherichia coli [9]): 13 - 18 mm; diameter of the inhibition zone (DIZ) (Salmonella typhimurium): 13 - 18 mm; diameter of the inhibition zone (DIZ) (Bacillus subtilis [10]): 13 - 18 mm

Question: Which “diameter of the inhibition zone (DIZ)” value (Bacillus subtilis [2]) does the source give for CCCCCCC(O)C/C=C\CCCCCCc1nc2ccccc2c(=O)o1 (stereo unspecified) here?
Answer: 15 - 19 mm

Question: What about the “diameter of the inhibition zone (DIZ)” value (Klebsiella pneumoniae) of the same molecule?
Answer: 15 - 19 mm

Question: What about the “diameter of the inhibition zone (DIZ)” value (Staphylococcus aureus [3]) of the same molecule?
Answer: 15 - 19 mm

Question: And the “diameter of the inhibition zone (DIZ)” value (Escherichia coli [4])?
Answer: 15 - 19 mm

Question: What about the “diameter of the inhibition zone (DIZ)” value (Candida albicans [7]) of the same molecule?
Answer: 17 - 20 mm
